Values joined by “and” are separate entries in the source; they are usually repeats but may differ in a detail not shown here. Equal entries are not always repeated. Where two headings read alike, the source gives them in different places.
Columns and labels:
Format in all cases: biochemical
Recombinant human LOXL1 = target: T1, Recombinant human LOXL1 (Homo sapiens, UniProt Q08397); test: Amplex Red oxidation assay, LOXL1 inhibition
T1 construct: made in house
T1 sequence (Q08397 96-574): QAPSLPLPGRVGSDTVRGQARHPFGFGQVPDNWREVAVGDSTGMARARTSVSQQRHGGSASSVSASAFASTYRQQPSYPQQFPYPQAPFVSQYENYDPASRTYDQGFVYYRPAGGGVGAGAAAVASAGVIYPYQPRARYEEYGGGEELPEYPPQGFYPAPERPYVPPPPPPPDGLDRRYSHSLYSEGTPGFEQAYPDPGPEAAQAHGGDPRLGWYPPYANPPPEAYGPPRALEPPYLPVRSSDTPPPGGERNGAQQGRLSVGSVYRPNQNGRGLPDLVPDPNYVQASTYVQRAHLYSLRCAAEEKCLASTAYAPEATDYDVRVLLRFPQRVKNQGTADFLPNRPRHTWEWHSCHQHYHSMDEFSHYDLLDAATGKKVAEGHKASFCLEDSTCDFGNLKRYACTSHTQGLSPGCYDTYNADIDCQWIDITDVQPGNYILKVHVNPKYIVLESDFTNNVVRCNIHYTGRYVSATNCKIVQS
Description: (§1) The measurement of the enzymatic activity of all lysyl oxidase family members was based on the detection of hydrogen peroxide with an Amplex-Red oxidation assay, as previously described; miniaturized in 384 well formats, with the appropriate combination of substrate and assay buffer for each individual enzyme. After a 30 min pre-incubation of the enzyme at 37 °C with the test compound (or with different incubation times for the time-dependency assay), one volume of reaction mixture containing 120 μM Amplex Red (AR) (Life Technologies), 1.5 U/mL horseradish peroxidase (HRP) (Sigma-Aldrich) and the specific substrate was added to each sample. The relative fluorescence units (RFU) were then measured every 2.5 min for 30 min at 37 °C, excitation 565 nm and emission 590, on a BMG Clariostar Microplate Reader. All the substrates were used at concentrations corresponding to their Km towards the corresponding enzyme, or with a range of different concentrations for the substrate competition experiments.
(§2) Lysyl oxidases assay buffer contained 1.2 M urea, 50 mM sodium borate buffer, pH 8.2 and 100 µM β-aminoproprionitrile (BAPN, Sigma-Aldrich) was used for low control.
(§3) Recombinant human LOXL1 was expressed and purified from cDNA (GeneArt) and 10 mM putrescine was used as substrate. Recombinant human and mouse LOXL2 (R&D Systems) were challenged with 5 mM putrescine (Sigma-Aldrich) as the substrate. Rat and dog recombinant LOXL2 were amplified and purified in house from HEK-293 clones kindly provided by Dr. Fernando Rodríguez Pascual, Madrid University, and used in the same conditions as for the human form. 2 mM putrescine was used as the substrate for recombinant human LOXL3 (R&D Systems) and LOXL4 (Dr. Fernando Rodríguez Pascual, university of Madrid, Spain) assays.

recombinant human LOXL4 = target: T2, recombinant human LOXL4 (Homo sapiens, UniProt Q96JB6); test: Amplex Red oxidation assay, LOXL4 inhibition
T2 construct: Dr. Fernando Rodríguez Pascual, university of Madrid, Spain (academic provider)
T2 sequence (Q96JB6 25-756): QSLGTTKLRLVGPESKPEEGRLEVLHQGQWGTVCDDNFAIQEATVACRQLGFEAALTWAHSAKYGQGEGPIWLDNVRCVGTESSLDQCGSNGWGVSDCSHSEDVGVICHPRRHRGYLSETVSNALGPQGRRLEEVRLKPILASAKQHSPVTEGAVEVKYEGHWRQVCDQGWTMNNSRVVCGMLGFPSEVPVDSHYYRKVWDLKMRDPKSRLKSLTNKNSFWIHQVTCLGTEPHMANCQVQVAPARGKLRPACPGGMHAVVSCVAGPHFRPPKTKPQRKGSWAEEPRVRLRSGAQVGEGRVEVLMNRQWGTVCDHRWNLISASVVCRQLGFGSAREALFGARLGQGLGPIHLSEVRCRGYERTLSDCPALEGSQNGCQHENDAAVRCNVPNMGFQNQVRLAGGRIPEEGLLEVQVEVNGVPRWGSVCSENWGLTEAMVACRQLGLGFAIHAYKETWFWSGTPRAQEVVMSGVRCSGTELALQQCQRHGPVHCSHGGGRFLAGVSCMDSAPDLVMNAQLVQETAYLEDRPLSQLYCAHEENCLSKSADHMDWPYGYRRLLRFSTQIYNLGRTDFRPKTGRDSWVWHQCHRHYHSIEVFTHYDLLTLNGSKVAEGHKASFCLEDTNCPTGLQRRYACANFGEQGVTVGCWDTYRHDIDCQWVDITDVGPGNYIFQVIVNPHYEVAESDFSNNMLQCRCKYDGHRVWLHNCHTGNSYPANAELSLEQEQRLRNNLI
Description: as §1, §2, §3

recombinant human LOXL3 = target: T3, recombinant human LOXL3 (Homo sapiens, UniProt P58215); test: Amplex Red oxidation assay, LOXL3 inhibition
T3 construct: purchased R&D Systems
T3 sequence (P58215 26-753): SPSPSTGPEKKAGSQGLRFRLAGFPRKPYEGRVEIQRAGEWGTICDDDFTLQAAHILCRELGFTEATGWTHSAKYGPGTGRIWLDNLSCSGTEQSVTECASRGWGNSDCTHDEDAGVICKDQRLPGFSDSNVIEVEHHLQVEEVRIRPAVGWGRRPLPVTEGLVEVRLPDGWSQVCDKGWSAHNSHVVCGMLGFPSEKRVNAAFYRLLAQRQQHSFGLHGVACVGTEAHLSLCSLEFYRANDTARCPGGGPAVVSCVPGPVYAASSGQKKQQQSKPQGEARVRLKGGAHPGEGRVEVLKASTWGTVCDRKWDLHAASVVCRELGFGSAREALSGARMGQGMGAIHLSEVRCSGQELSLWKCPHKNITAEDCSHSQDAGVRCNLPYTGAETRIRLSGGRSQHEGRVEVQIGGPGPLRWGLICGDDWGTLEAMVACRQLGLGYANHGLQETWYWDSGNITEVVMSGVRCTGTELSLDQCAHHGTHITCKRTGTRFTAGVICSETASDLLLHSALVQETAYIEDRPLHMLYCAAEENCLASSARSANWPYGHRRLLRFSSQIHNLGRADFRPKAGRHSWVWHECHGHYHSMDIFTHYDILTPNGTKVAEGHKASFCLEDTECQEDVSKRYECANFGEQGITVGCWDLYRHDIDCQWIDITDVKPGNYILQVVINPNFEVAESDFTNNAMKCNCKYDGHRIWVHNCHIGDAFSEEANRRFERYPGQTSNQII
Description: as §1, §2, §3

[1] = 30 min pre-incubation, read-out: rh LOXL1 IC50
[2] = 30 min pre-incubation, read-out: rh LOXL4 IC50
[3] = 30 min pre-incubation, read-out: rh LOXL3 IC50
[4] = log conc -4.5229, read-out: Fig 2A inhibition (mean)
[5] = log conc -5, read-out: Fig 2A inhibition (mean)
[6] = log conc -5.4771, read-out: Fig 2A inhibition (mean)
[7] = log conc -5.9542, read-out: Fig 2A inhibition (mean)
[8] = log conc -6.4313, read-out: Fig 2A inhibition (mean)
[9] = log conc -6.9083, read-out: Fig 2A inhibition (mean)
[10] = log conc -7.3851, read-out: Fig 2A inhibition (mean)
[11] = log conc -7.8633, read-out: Fig 2A inhibition (mean)
[12] = log conc -8.3372, read-out: Fig 2A inhibition (mean)
[13] = log conc -8.8239, read-out: Fig 2A inhibition (mean)
[14] = log conc -9.301, read-out: Fig 2A inhibition (mean)
[15] = read-out: Human Recombinant LOXL1 pIC50±SD (converted)
[16] = read-out: Human Recombinant LOXL4 pIC50±SD (converted)
[17] = read-out: Human Recombinant LOXL3 pIC50±SD (converted)

N#CCCN [BAPN, β-aminoproprionitrile, reference compound]
Human Recombinant LOXL1 pIC50±SD (Recombinant human LOXL1): 5.6 ± 0.1
IC50 (Recombinant human LOXL1; [1]): 2.46 µM
Human Recombinant LOXL4 pIC50±SD (recombinant human LOXL4): 6.6 ± 0.1
IC50 (recombinant human LOXL4; [2]): 280 nM
Human Recombinant LOXL3 pIC50±SD (recombinant human LOXL3): 6.3 ± 0.1
IC50 (recombinant human LOXL3; [3]): 510 nM

NC/C=C(\F)CS(=O)(=O)c1ccccc1 [PXS-4787]
IC50 (Recombinant human LOXL1; [1]): 3 µM and 3.23 µM
inhibition at 30 µM (Recombinant human LOXL1; [4]): 97.5%
inhibition at 10 µM (Recombinant human LOXL1; [5]): 84.7%
inhibition at 3.333 µM (Recombinant human LOXL1; [6]): 56.4%
inhibition at 1.111 µM (Recombinant human LOXL1; [7]): 26.9%
inhibition at 0.3704 µM (Recombinant human LOXL1; [8]): 13.6%
inhibition at 0.1235 µM (Recombinant human LOXL1; [9]): 6.04%
inhibition at 0.0412 µM (Recombinant human LOXL1; [10]): 2.88%
inhibition at 0.0137 µM (Recombinant human LOXL1; [11]): 3.87%
inhibition at 0.0046 µM (Recombinant human LOXL1; [12]): 0.808%
inhibition at […] (Recombinant human LOXL1; [13]): -1.89%
inhibition at 0.0005 µM (Recombinant human LOXL1; [14]): 1.05%
IC50 (Recombinant human LOXL1; [15]): 3.16 µM
IC50 (recombinant human LOXL4; [2]): 220 nM
inhibition at 30 µM (recombinant human LOXL4; [4]): 102%
inhibition at 10 µM (recombinant human LOXL4; [5]): 101%
inhibition at 3.333 µM (recombinant human LOXL4; [6]): 98.6%
inhibition at 1.111 µM (recombinant human LOXL4; [7]): 89.8%
inhibition at 0.3704 µM (recombinant human LOXL4; [8]): 66.3%
inhibition at 0.1235 µM (recombinant human LOXL4; [9]): 36.5%
inhibition at 0.0412 µM (recombinant human LOXL4; [10]): 14.1%
inhibition at 0.0137 µM (recombinant human LOXL4; [11]): 8.84%
inhibition at 0.0046 µM (recombinant human LOXL4; [12]): 2.39%
inhibition at […] (recombinant human LOXL4; [13]): 0.738%
inhibition at 0.0005 µM (recombinant human LOXL4; [14]): -0.645%
IC50 (recombinant human LOXL4; [16]): 200 nM
IC50 (recombinant human LOXL3; [3]): 1420 nM
inhibition at 30 µM (recombinant human LOXL3; [4]): 99.7%
inhibition at 10 µM (recombinant human LOXL3; [5]): 94.8%
inhibition at 3.333 µM (recombinant human LOXL3; [6]): 75.7%
inhibition at 1.111 µM (recombinant human LOXL3; [7]): 41.8%
inhibition at 0.3704 µM (recombinant human LOXL3; [8]): 18.9%
inhibition at 0.1235 µM (recombinant human LOXL3; [9]): 6.04%
inhibition at 0.0412 µM (recombinant human LOXL3; [10]): -0.564%
inhibition at 0.0137 µM (recombinant human LOXL3; [11]): 1.57%
inhibition at 0.0046 µM (recombinant human LOXL3; [12]): -2.27%
inhibition at […] (recombinant human LOXL3; [13]): -2.78%
inhibition at 0.0005 µM (recombinant human LOXL3; [14]): -0.598%
IC50 (recombinant human LOXL3; [17]): 1260 nM

NC/C=C(\F)C(F)(F)S(=O)(=O)c1ccccc1 [PXS-6302]
IC50 (Recombinant human LOXL1; [1]): 3.42 µM
IC50 (Recombinant human LOXL1; [15]): 3.16 µM
IC50 (recombinant human LOXL4; [2]): 320 nM
IC50 (recombinant human LOXL4; [16]): 316 nM
IC50 (recombinant human LOXL3; [3]): 1540 nM
IC50 (recombinant human LOXL3; [17]): 1580 nM
